Experimental data from patent US20260102422A1, “4'-HALOGEN CONTAINING NUCLEOTIDE AND NUCLEOSIDE THERAPEUTIC COMPOSITIONS AND USES RELATED THERETO” (priority 2019, published 2026).

What was measured:
EEEV = test: microbe, parasite or virus in culture; format: cell-based; settings: Eastern equine encephalitis virus, Vero 76
Lassa fever virus = test: organism not typed; format: cell-based
Junin virus = test: microbe, parasite or virus in culture; format: cell-based; settings: Mammarenavirus juninense
Pichinde virus = format: cell-based
Poliovirus = test: microbe, parasite or virus in culture; format: cell-based; settings: Enterovirus C, Vero 76
Enterovirus-68 = Enterovirus-68 antiviral assay; format: cell-based; settings: strain US/KY/14-18953; RD cells
Measles = Measles antiviral assay; format: cell-based, measles virus; settings: Measles morbillivirus; strain CC; Vero 76 cells
Mayaro = Mayaro antiviral assay; format: cell-based; settings: strain BEAR 505411; Vero 76 cells
Machupo = test: microbe, parasite or virus in culture; format: cell-based, Machupo virus; settings: Mammarenavirus machupoense
Lujo = test: microbe, parasite or virus in culture; format: cell-based, Lujo virus; settings: Mammarenavirus lujoense
MDCK cells = test: Cytotoxicity (CC50) in MDCK cells; format: cell-based; settings: Canine, Kidney, n = 6
MA-104 cells = test: Cytotoxicity (CC50) in MA-104 cells; format: cell-based; settings: MA-104, Monkey, Kidney, n = 2
[1] = Cytotoxicity (CC50) in RD cells; format: cell-based, Human; settings: human, RD cells, alongside antiviral assays
RD cells = test: Cytotoxicity (CC50) in RD cells; format: cell-based, Human; settings: RD, Human, Muscle
RAW264.7 cells = test: Cytotoxicity (CC50) in RAW264.7 cells; format: cell-based; settings: RAW 264.7, Mouse, Macrophage
HG23 cells = test: Cytotoxicity (CC50) in HG23 cells; format: cell-based; settings: HG23, Human
Huh-7 cells = test: Cytotoxicity (CC50) in Huh-7 cells; format: cell-based; settings: Huh7, Human, Liver, n = 3
[2] = Cytotoxicity (CC50) in HeLa cells; format: cell-based; settings: human, alongside antiviral assays
CEM cells = test: Cytotoxicity (CC50) in CEM cells; format: cell-based; settings: Human, Lymphoid
A-204 cells = test: Cytotoxicity (CC50) in A-204 cells; format: cell-based; settings: A204, Human, Muscle
A549 cells = test: Cytotoxicity (CC50) in A549 cells; format: cell-based; settings: A549, Human, Lung
BxPC-3 cells = test: Cytotoxicity (CC50) in BxPC-3 cells; format: cell-based; settings: BxPC-3, Human, Pancreas
H9c2 cells = test: Cytotoxicity (CC50) in H9c2 cells; format: cell-based; settings: H9c2, Rat, Heart
IEC-6 cells = test: Cytotoxicity (CC50) in IEC-6 cells; format: cell-based; settings: IEC-6, Rat, Small intestine
HepG2/Gal* cells = test: Cytotoxicity (CC50) in HepG2/Gal* cells; format: cell-based; settings: Human
HBTECs = test: Cytotoxicity (CC50) in HBTECs; format: cell-based; settings: Human, Respiratory Tract
BEAS-28 cells = test: Cytotoxicity (CC50) in BEAS-28 cells; format: cell-based; settings: BEAS-28, Human, Lung
BEAS-28/Gal* cells = test: Cytotoxicity (CC50) in BEAS-28/Gal* cells; format: cell-based; settings: Human, Lung
MDCK/Gal* cells = test: Cytotoxicity (CC50) in MDCK/Gal* cells; format: cell-based; settings: Canine, Kidney
BHK-T7 cells = test: Cytotoxicity (CC50) in BHK-T7 cells; format: cell-based; settings: BHK-T7, Hamster, Kidney
[3] = Ferret plasma PK, single dose; format: in vivo; settings: ferrets; for AUC(0-inf) / Cmax / Tmax / half-life: plasma
[4] = Guinea pig plasma PK, single dose; format: in vivo; settings: Guinea pigs
Vero cells = settings: green monkey
[5] = Mouse plasma PK, single dose; settings: for AUC-INF/Dose / Cmax/Dose: CD-1 mice; for AUC(0-inf) / Cmax / half-life / Tmax: female, ICR (CD-1), mouse, plasma, po
MERS = test: microbe, parasite or virus in culture; format: cell-based, Middle East Respiratory Syndrome coronavirus
HCoV-alpha 229E = HCoV-alpha 229E antiviral assay; format: cell-based, HCoV-229E; settings: Human coronavirus 229E; strain 229E; Huh-7 cells
HCoV-beta OC43 = HCoV-beta OC43 antiviral assay; format: cell-based; settings: Betacoronavirus 1; strain OC43; RD cells
SARS = test: microbe, parasite or virus in culture; format: cell-based, SARS coronavirus; settings: Severe acute respiratory syndrome coronavirus, Vero 76
SARS-CoV-2 = test: microbe, parasite or virus in culture; format: cell-based; settings: Severe acute respiratory syndrome coronavirus 2, Calu-3
in vitro = settings: human
Plasma stability, rat = settings: drug 1.00 μM
Plasma stability, human = settings: drug 1.00 μM
Plasma stability, mouse = settings: drug 1.00 μM
[6] = Liver microsome stability, rat; settings: rat liver microsomes, drug 1.00 μM
[7] = Liver microsome stability, human; settings: human liver microsomes, drug 1.00 μM
[8] = Liver microsome stability, mouse; settings: mouse liver microsomes, drug 1.00 μM
[9] = guinea pig, 50 mg/kg PO, plasma

## O=c1ccn([C@@H]2O[C@](F)(CO)[C@@H](O)[C@H]2O)c(=O)[nH]1 [EIDD-02749, 1-[(2R, 3R, 4S, 5S)-5-fluoro-3,4-dihydroxy-5-(hydroxymethyl)tetrahydrofuran-2-yl]pyrimidine-2,4-dione]
EEEV
  EC90: 1790 nM
Lassa fever virus; HeLa
  EC50: 450 nM
Lassa fever virus; Huh-7
  EC50: 900 nM
Lassa fever virus; Vero C1008
  EC50: 360 nM
Junin virus; HeLa
  EC50: 20 nM
Junin virus; Huh-7
  EC50: 250 nM
Junin virus; Vero C1008
  EC50: 80 nM
Pichinde virus
  EC90: 320 nM
Poliovirus
  EC90: 3800 nM
Enterovirus-68
  EC90: 1060 nM
Measles
  EC50: 1060 nM
Mayaro
  EC50: 2810 nM
  EC90: 9500 nM
Machupo; HeLa
  EC50: 70 nM
Machupo; Huh-7
  EC50: 310 nM
Machupo; Vero C1008
  EC50: 1490 nM
Lujo; HeLa
  EC50: 70 nM
Lujo; Huh-7
  EC50: 1320 nM
Lujo; Vero C1008
  EC50: 830 nM
MDCK cells
  CC: >380 µM
MA-104 cells
  CC: >380 µM
[1]
  CC50: 228000 nM
RD cells
  CC: >380 µM
RAW264.7 cells
  CC: >100 µM
HG23 cells
  CC: 100 µM
Huh-7 cells
  CC: >400 µM
[2]
  CC50: 77000 nM
CEM cells
  CC: 107 µM
A-204 cells
  CC: >400 µM
A549 cells
  CC: >400 µM
BxPC-3 cells
  CC: >400 µM
H9c2 cells
  CC: >400 µM
IEC-6 cells
  CC: >400 µM
HepG2/Gal* cells
  CC: >400 µM
HBTECs
  CC: >500 µM
BEAS-28 cells
  CC: >500 µM
BEAS-28/Gal* cells
  CC: 250 µM
MDCK/Gal* cells
  CC: 444 µM
BHK-T7 cells
  CC: >500 µM
[3]; 15 mg/kg PO
  AUC-INF/Dose: 2691.2 ± 483.7 h*kg*nmol/mL/mmol
  Cmax/Dose: 608.2 ± 114.0 kg*nmol/mL/mmol
  AUC(0-inf): 154 ± 27.6 µM·h
  Cmax: 34.8 ± 6.5 µM
  Tmax: 1 h
  half-life: 5.97 ± 0.35 h
[3]; 50 mg/kg PO
  AUC-INF/Dose: 2166.1 ± 409.8 h*kg*nmol/mL/mmol
  Cmax/Dose: 332.0 ± 57.5 kg*nmol/mL/mmol
  AUC(0-inf): 413 ± 78.1 µM·h
  Cmax: 63.3 ± 10.9 µM
  Tmax: 2.3 ± 1.5 h
  half-life: 4.3 ± 0.8 h
[4]; 5 mg/kg IV
  AUC0->∞/Dose: 5639.4 ± 234.2 h · kg · nmol/mL · mmol
  Cmax/Dose: 7525.0 ± 6050.9 kg · nmol/mL · mmol
[4]; 5 mg/kg PO
  AUC0->∞/Dose: 4869.4 ± 841.9 h · kg · nmol/mL · mmol
  Cmax/Dose: 1054.5 ± 118.8 kg · nmol/mL · mmol
  VD: 13.0 ± 1.6 L/kg
[4]; 50 mg/kg PO
  AUC0->∞/Dose: 2923.1 ± 209.6 h · kg · nmol/mL · mmol
  Cmax/Dose: 453.0 ± 51.2 kg · nmol/mL · mmol
  VD: 14.9 ± 1.9 L/kg
[4]; guinea pig, plasma, 5 mg/kg IV
  clearance: 3 mL/min/kg
[4]; guinea pig, 5 mg/kg IV, plasma
  AUC(0-inf): 108 ± 4.5 µM·h
  Cmax: 144 ± 115 µM
  Tmax: 0.083 h
  half-life: 9.3 ± 1.3 h
[4]; guinea pig, 5 mg/kg PO, plasma
  AUC(0-inf): 92.9 ± 16.1 µM·h
  Cmax: 20.1 ± 2.3 µM
  Tmax: 1.3 ± 0.5 h
  half-life: 20.1 ± 2.3 h
[4]; [9]
  AUC(0-inf): 558 ± 39.9 µM·h
  Cmax: 86.4 ± 9.8 µM
  Tmax: 1.8 ± 0.5 h
  half-life: 86.4 ± 9.8 h
Vero cells
  CC: >380 µM
[5]; 10 mg/kg IP
  AUC-INF/Dose: 514.5 h*kg*nmol/mL/mmol
  Cmax/Dose: 202.1 kg*nmol/mL/mmol
[5]; 50 mg/kg PO
  AUC-INF/Dose: 1215.0 h*kg*nmol/mL/mmol
  Cmax/Dose: 184.3 kg*nmol/mL/mmol
[5]; 150 mg/kg PO
  AUC-INF/Dose: 685.8 h*kg*nmol/mL/mmol
  Cmax/Dose: 76.2 kg*nmol/mL/mmol
[5]; 500 mg/kg PO
  Cmax/Dose: 39.9 kg*nmol/mL/mmol
[5]; 1.5 mg/kg
  AUC(0-inf): 6.58 µM·h
  Cmax: 1.2 µM
  half-life: 17.9 h
[5]; 5 mg/kg
  AUC(0-inf): 28.6 µM·h
  Cmax: 7.1 µM
  half-life: 15.2 h
[5]; 15 mg/kg
  AUC(0-inf): 86.9 µM·h
  Cmax: 23.3 µM
  half-life: 20.3 h
[5]; 50 mg/kg
  half-life: 8.28 h
[5]; 150 mg/kg
  Tmax: 1 h
  half-life: 8.46 h
[5]; 500 mg/kg
  Tmax: 1 h

## O=c1ccn([C@@H]2O[C@](F)(CO)[C@@H](O)[C@H]2O)c(=O)[nH]1 [EIDD-2749]
MERS
  EC50: 5700 nM
MERS; Middle East respiratory syndrome-related coronavirus, Vero 76
  EC90: 9500 nM
HCoV-alpha 229E
  EC50: 1670 nM
  EC90: 9500 nM
HCoV-beta OC43
  EC50: 1060 nM
  EC90: 2850 nM
SARS
  EC50: 14100 nM
SARS-CoV-2
  EC50: 1900 nM
In vitro
  CC50: > 50000 nM

## O=c1ccn([C@@H]2O[C@](F)(COP3(=O)OCc4ccccc4O3)[C@@H](O)[C@H]2O)c(=O)[nH]1 (stereo partly shown) [EIDD-02838]
Plasma stability, rat
  half-life: <1 min
Plasma stability, rat; EIDD-2749 formed
  max [2749]: 0.0341 µM
Plasma stability, human; 37° C
  half-life: 0.2 h
Plasma stability, human; EIDD-2749 formed
  max [2749]: 0.0521 µM
Plasma stability, mouse
  half-life: 1 min
Plasma stability, mouse; EIDD-2749 formed
  max [2749]: 0.0216 µM
[6]
  half-life: 8 min
[6]; EIDD-2749 formed
  max [2749]: 0.218 µM
[7]
  half-life: 0.12 h
[7]; EIDD-2749 formed
  max [2749]: 0.130 µM
[8]
  half-life: 7 min
[8]; EIDD-2749 formed
  max [2749]: 0.0347 µM

## CC(C)C(=O)OC[C@@]1(F)OC(n2ccc(=O)[nH]c2=O)C(O)[C@@H]1O (stereo partly drawn) [EIDD-2947, [(2S, 3S)-5-(2,4-dioxopyrimidin-1-yl)-2-fluoro-3,4-dihydroxy-tetrahydrofuran-2-yl]methyl 2-methylpropanoate]
[7]
  half-life: 0.733 h
